“And” between values parts separate entries of the source, which are not always exact repeats. Equal values may be shown once.
What was measured:
[1] = In-vitro hydrolysis of Nabumetone beta-keto ester pro-prodrug and release of Nabumetone in model blood electrolyte solution at 37° C.; assay type: physicochemical; settings: model blood solutes solution
[2] = Storage stability of benzoylacetate salts and their corresponding acid (HPLC or gravimetric); assay type: physicochemical; settings: for weight % of initial amount: Solid benzoylacetic acid, room T and ambient indoor humidity
Method: A 0.2 M solution of ethyl benzoyl acetate (90%, Sigma Aldrich) in 0.5 M NaOH (aq) was prepared at room temperature and stirred for typically 5-24 hours, still at room temperature. After this time a major part of the ethyl benzoyl acetate had been transformed into dissolved sodium benzoyl acetate, as evidenced by monitoring the reaction by analysis of samples by reversed phase HPLC. Some acetophenone and remaining ethyl benzoyl acetate were typically present in the samples, but in minor amounts. The method employed a C8 column with an inner diameter of 150×4.6 mm and 5 micron particles. The mobile phase consisted of 400 ml deionized water+600 ml acetonitrile+0.196 g H3PO4 (85%)+2.760 g NaH2PO4*H2O. The flow rate was set to 1.0 mL/min and UV detection at 254 nm was employed for analysis of the compounds ethylbenzoylacetate (precursor), benzoylacetate (model prodrug) and acetophenone (model drug).
The storage stability of the sodium and calcium salts of benzoylacetate, and of benzoylacetic acid, in solid form, and in aqueous solutions, was investigated by storage of samples under various conditions (see Table 3a above) with regular HPLC- or gravimetric measurements of the samples from time to time. Samples denoted “neutralized” were prepared from a solution prepared as described in Example 1, which was neutralized with diluted HCl after performing the steps in Example 1.
From the data it can be concluded that the best storage stability at room temperature is obtained by storage in the form of the calcium salt.

[3] = Aqueous solubility of sodium beta-keto salt prodrug of Nabumetone (Example 13b); assay type: physicochemical; settings: clear liquid after 3.5 h at 37° C. in 0.5 M NaOH; 200 μL diluted with 5.0 ml mobile phase
Method: 12.1 mg of the of ethyl-5-(6-methoxy-2-naphthyl)-beta-keto-pentanoate product prepared and purified as in Example 8 was mixed with 25 mL of a 0.5 M aqueous solution NaOH and homogenised on a vortex mixer. […] 15 minutes after preparation of the sample, the sample was transferred to an oil bath set at 37° C. with continuous gentle magnetic stirring, and kept there for 3.5 hours. Crystalline flakes remained in the sample at the end of the 3.5 hours heat-treatment, and the sample was thereafter centrifuged and the clear liquid above the sedimented crystals was analysed by HPLC as described above.
After storage around one hour at room temperature a fraction of the sample was then filtered twice through a 0.2 μm filter (Whatman, 0.2 μm PS) fitted to a syringe to give a clear solution. 200 μL of this filtered solution was transferred, in a tightly closed vessel, to an oil bath at 95° C. and kept at this temperature for about 5 hours to bring about quantitative decarboxylation of the labile, dissolved beta-keto carboxylic salt prodrug derivative of Nabumetone.
The heated sample was then mixed with 35 mL of mobile phase (see Example 1) whereby a few solid crystals (comprising Nabumetone) was seen to not dissolve. In order to assure a correct sampling for HPLC analysis, 5 mL of the 35 mL sample was filtered through a 0.2 μm filter, after the whole 35 mL sample had been pH adjusted to 4.21 by 300 μL 0.1 M HCl+100 μL 1 M HCl, to assure that the pH of the sample was close to the pH of the mobile phase itself (pH 4.30). The filtered solution was thereafter analysed by HPLC and found to contain 0.777 mg Nabumetone per liter. If recalculated to the corresponding concentration of nabumetone equivalents in the form of the beta-keto salt prodrug present in dissolved form in the filtered 200 μl sample that was subsequently heat-treated to form Nabumetone above, the obtained concentration corresponds to a Nabumetone concentration of 136.7 mg Nabumetone per liter in the clear aqueous solution, at room temperature, before the heat-treatment at 95° C.

[4] = Sustained release of acetophenone in vitro in pig blood at 37° C.; settings: for Benzoyl acetate ion concentration: pig blood pH 6.63
[5] = Storage stability of beta-keto calcium salt prodrug of Nabumetone (17 days at 60° C., HPLC); assay type: physicochemical; settings: for Relative amount of calcium salt beta-keto prodrug/Nabumetone remaining after 17 days at 60° C.: dry calcium salt, oven at 60° C.

Compound: COc1ccc2cc(CCC(=O)CC(=O)O)ccc2c1 [Prodrug/beta-keto anion, 5-(6-methoxy-2-naphthyl)-beta-keto-pentanoate]
- Prodrug/beta-keto anion (HPLC area) ([1]; Time 0.00 hours): 2055 arbitrary units
- Prodrug/beta-keto anion (HPLC area) ([1]; Time 0.67 hours): 2313 arbitrary units
- Prodrug/beta-keto anion (HPLC area) ([1]; Time 1.67 hours): 2383 arbitrary units
- Prodrug/beta-keto anion (HPLC area) ([1]; Time 2.67 hours): 2266 arbitrary units
- Prodrug/beta-keto anion (HPLC area) ([1]; Time 4.58 hours): 2204 arbitrary units
- Prodrug/beta-keto anion (HPLC area) ([1]; Time 22.6 hours): 2079 arbitrary units
- Prodrug/beta-keto anion (HPLC area) ([1]; Time 28.8 hours): 2284 arbitrary units
- Prodrug/beta-keto anion (HPLC area) ([1]; Time 48.8 hours): 2312 arbitrary units
- Prodrug/beta-keto anion (HPLC area) ([1]; Time 53.6 hours): 2350 arbitrary units
- Prodrug/beta-keto anion (HPLC area) ([1]; Time 70.3 hours): 2087 arbitrary units and 2313 arbitrary units
- Prodrug/beta-keto anion (HPLC area) ([1]; Time 96.8 hours): 1915 arbitrary units and 1922 arbitrary units
- Prodrug/beta-keto anion (HPLC area) ([1]; Time 121.25 hours): 1620 arbitrary units
- Prodrug/beta-keto anion (HPLC area) ([1]; Time 145.0 hours): 1444 arbitrary units
- Prodrug/beta-keto anion (HPLC area) ([1]; Time 172.6 hours): 1220 arbitrary units
- Prodrug/beta-keto anion (HPLC area) ([1]; Time 197.3 hours): 1043 arbitrary units
- Prodrug/beta-keto anion (HPLC area) ([1]; Time 218.4 hours): 943 arbitrary units
- Prodrug/beta-keto anion (HPLC area) ([1]; Time 293.7 hours): 400 arbitrary units
- Prodrug/beta-keto anion (HPLC area) ([1]; Time 335 hours): 398.5 arbitrary units

Compound: O=C(O)CC(=O)c1ccccc1 [benzoylacetic acid]
- weight % of initial amount ([2]; storage time 0 days): 100 weight %
- weight % of initial amount ([2]; storage time 9 days): 94.7 weight %
- weight % of initial amount ([2]; storage time 23 days): 87.4 weight %
- weight % of initial amount ([2]; storage time 27 days): 85.4 weight %
- weight % of initial amount ([2]; storage time 29 days): 84.4 weight %
- weight % of initial amount ([2]; storage time 35 days): 81.9 weight %
- weight % of initial amount ([2]; storage time 42 days): 79.4 weight %
- weight % of initial amount ([2]; storage time 52 days): 73.6 weight %
- half-life ([2]; solid dry acid, typical indoor conditions): ~100 days

Compound: CCOC(=O)CC(=O)CCc1ccc2cc(OC)ccc2c1 [Pro-prodrug/beta-keto ester, ethyl-5-(6-methoxy-2-naphthyl)-beta-keto-pentanoate]
- Pro-prodrug/beta-keto ester (HPLC peak area) ([1]; Time 0.00 hours): 1440 arbitrary units
- Pro-prodrug/beta-keto ester (HPLC peak area) ([1]; Time 0.67 hours): 1368 arbitrary units
- Pro-prodrug/beta-keto ester (HPLC peak area) ([1]; Time 1.67 hours): 1395 arbitrary units
- Pro-prodrug/beta-keto ester (HPLC peak area) ([1]; Time 2.67 hours): 1145 arbitrary units
- Pro-prodrug/beta-keto ester (HPLC peak area) ([1]; Time 4.58 hours): 1130 arbitrary units
- Pro-prodrug/beta-keto ester (HPLC peak area) ([1]; Time 22.6 hours): 780 arbitrary units
- Pro-prodrug/beta-keto ester (HPLC peak area) ([1]; Time 28.8 hours): 672 arbitrary units
- Pro-prodrug/beta-keto ester (HPLC peak area) ([1]; Time 48.8 hours): 618 arbitrary units
- Pro-prodrug/beta-keto ester (HPLC peak area) ([1]; Time 53.6 hours): 0 arbitrary units
- Pro-prodrug/beta-keto ester (HPLC peak area) ([1]; Time 70.3 hours): 227 arbitrary units and 245 arbitrary units
- Pro-prodrug/beta-keto ester (HPLC peak area) ([1]; Time 121.25 hours): 0 arbitrary units
- Pro-prodrug/beta-keto ester (HPLC peak area) ([1]; Time 145.0 hours): 0 arbitrary units
- Pro-prodrug/beta-keto ester (HPLC peak area) ([1]; Time 172.6 hours): 0 arbitrary units
- Pro-prodrug/beta-keto ester (HPLC peak area) ([1]; Time 197.3 hours): 0 arbitrary units
- Pro-prodrug/beta-keto ester (HPLC peak area) ([1]; Time 218.4 hours): 0 arbitrary units
- Pro-prodrug/beta-keto ester (HPLC peak area) ([1]; Time 293.7 hours): 0 arbitrary units
- Pro-prodrug/beta-keto ester (HPLC peak area) ([1]; Time 335 hours): 0 arbitrary units
- Area at retention time […] characteristic for detection of the beta-keto ester pro-prodrug [3]: 632 arbitrary units

Compound: benzoyl acetate [Benzoyl acetate ion]
- half life ([4]; pig blood pH 6.63, 37° C.): about 3 hours
- period of sustained release of the acetophenone (model drug) ([4]; pig blood pH 6.63, 37° C.): at least 6 hours
- Benzoyl acetate ion concentration ([4]; Time at 37° C. 0.25): 1.83 mM
- Benzoyl acetate ion concentration ([4]; Time at 37° C. 1.33): 1.54 mM
- Benzoyl acetate ion concentration ([4]; Time at 37° C. 2.58 (sampling time possibly exchanged with 4.75)): 1.17 mM
- Benzoyl acetate ion concentration ([4]; Time at 37° C. 4.75 (sampling time possibly exchanged with 2.58)): 0.929 mM
- Benzoyl acetate ion concentration ([4]; Time at 37° C. 5.58): 0.724 mM
- Benzoyl acetate ion concentration ([4]; Time at 37° C. 6.58): 0.641 mM
- Benzoyl acetate ion concentration ([4]; Time at 37° C. 22.58): 0.0356 mM
- Benzoyl acetate ion concentration ([4]; Time at 37° C. −0.17 (analysed just before heating to 37° C.)): 2.30 mM

Compound: 5-(6-methoxy-2-naphthyl)-beta-keto-pentanoate [Beta keto salt prodrug]
- half life ([5]; calcium salt form at 20° C., rule of thumb of doubling of reaction rate per 10° C.): ~270 days
- Obtained value (area units) ([5]; dry calcium salt after 17 days at 60° C., redissolved in water, HPLC): 1591 area units
- Relative amount of calcium salt beta-keto prodrug/Nabumetone remaining after 17 days at 60° C. [5]: 54.7%
- Relative amount of calcium salt beta-keto prodrug/Nabumetone remaining after 17 days at 60° C. ([5]; listed as calcium beta-keto salt prodrug of Nabumetone): more than 50%
- Expected value if no breakdown occured during storage and a 100% yield was obtained upon precipitation with calcium chloride ([5]; recalculated for dilution): 55938 area units

From patent publication US20120065179A1, “PRODRUG COMPRISING BETA-KETO CARBOXYLIC ACID, BETA-KETO CARBOXYLIC ACID SALT OR BETA-KETO CARBOXYLIC ACID ESTER FOR DRUG DELIVERY” (YKI, Ytemiska Institutet AB, priority 2009, published 2012)
